The target in test [1] is T1, dopamine receptors (striatal membranes) (Rattus norvegicus, UniProt P61169).
T1 construct: striatal membranes prepared from Long-Evans hooded rats; from tissue; host or cells: corpus striatum of Long-Evans hooded rats (membrane homogenate)
Put plainly: [^3 H]Haloperidol binding assay. Also noted: species or system rat (Long-Evans hooded rats). Particulars: 0.6 nM [^3 H]-haloperidol, pH 7.6, 25° C., 40 minutes. The method, then:
The antipsychotic activity of representative compounds of the invention was also established by the [^3 H]haloperidol binding assay method which is described in Mol. Pharmacol. 12, 800 (1976) and reports excellent correlation between the amount of binding and clinical potency.
[^3 H]Haloperidol Binding Assay. The relative affinities of compounds for dopamine receptors were evaluated on the basis of their ability to displace [^3 H]-haloperidol from striatal membranes prepared from Long-Evans hooded rats. Rats were decapitated; the brains were removed, and the corpus striata were dissected. The corpus striata were homogenized in 40 volumes of […] Tris buffer (pH 7.6) and centrifuged. Pellets were rehomogenized in 50 volumes of the same buffer and used for the binding assay. Incubations were carried out in 10 ml of […] Tris-HCl buffer (pH 7.6) containing 2 mg/ml of original wet tissue weight of homogenate, 100 μl of test agent or solvent, and 0.6 nM of [^3 H]-haloperidol. Nonspecific binding was determined in the presence of 0.1 μM (+)-butaclamol. Samples were incubated in reciprocating water bath at 25° C. for 40 minutes. Incubation was terminated by rapid filtration under reduced pressure through glass fiber filters (Whatman GF/B). The filters were rinsed three times with 10 ml of Tris-HCl buffer. The filters were placed in 10 ml of scintillation cocktail (Beckman Ready-Solv HP) and shaken for one hour. Radioactivity retained on the filter was determined by liquid scintillation spectrophotometry. IC50 s when determined were calculated from a nonlinear computer curve, fit on the data from […], each done in triplicate.

The subject of test [2] is spontaneous locomotion (Swiss-Webster male mice). In words: Inhibition of locomotor activity-screen fall-off test. Type of test: in vivo, mouse (Swiss-Webster male mice). Particulars: Mus musculus, ip, 1 h, intraperitoneal, one hour prior to testing, locomotion accumulated for one hour. The method, then: ANIMALS: Nine unfasted Swiss-Webster male mice (Buckberg Labs) weighing 20-30 g are equally divided into three groups for each drug dose to be tested. That is, data for each dose level was generated by three separate groups of three mice each.
DRUGS: A minimum of three dose levels (10, 30, and 100 mg/kg) are tested for each drug. Treatments are administered intraperitoneally one hour prior to testing. All dosages are calculated as parent compound. Compounds are dissolved or suspended in 0.2% methocel. Control animals are injected with methocel.
TESTING: A two-part testing procedure is started one hour postinjection. First, the screen test is performed (see Pharmac Biochem Behav 6, 351-353, 1977). Briefly, this test consists of placing mice on individual wire screens which are then rotated 180° at the start of a 60-second observation period. The number of mice falling off the inverted screen is recorded.
Immediately following the screen test, the final phase of testing is initiated by placing each group of three mice in one actophotometer (Life Sciences, 22, 1067-1076, 1978). The actophotometer consists of a cylindrical chamber whose center is occupied by another cylinder which contains the illumination for six photocells located on the perimeter of the chamber. Six light-beam interruptions equal one count. Locomotor activity is recorded by computer at ten-minute intervals for 60 minutes.
DATA: The data obtained from the screen test are expressed as percent of mice falling off the screen. Data derived from locomotor activity of drug-treated mice are compared to the activity of vehicle-treated animals and are expressed as percent inhibition of spontaneous locomotion. All percentages reported for inhibition of locomotion are based upon data accumulated for one hour. Both phases of testing are graded: A=60-100%; C=31-59%; and N=0-30%. An overall dose rating is obtained by the following criteria.
All other combinations = N
Utilizing this procedure, an overall dose rating of A was obtained for the noted compounds at the indicated dose, ED50 s, as reported in Table 1.

[3] abbreviates: rat striatal membranes, read-out: ^3 H-Haloperidol Binding IC50.
Where [4] appears, read: ^3 H-Haloperidol Binding IC50, rat striatal membranes.

These results are taken from patent publication US4803203A, “Phenyl and heterocyclic piperazinyl alkoxy-benzheterocyclic compounds as antipsychotic agents” (Warner-Lambert Company, priority 1987, dated 1989).

Read-outs that look alike come from different tables or passages of the source. A value given as a limit tells only on which side of the number the result lay.

T1 sequence (P61169 whole entry): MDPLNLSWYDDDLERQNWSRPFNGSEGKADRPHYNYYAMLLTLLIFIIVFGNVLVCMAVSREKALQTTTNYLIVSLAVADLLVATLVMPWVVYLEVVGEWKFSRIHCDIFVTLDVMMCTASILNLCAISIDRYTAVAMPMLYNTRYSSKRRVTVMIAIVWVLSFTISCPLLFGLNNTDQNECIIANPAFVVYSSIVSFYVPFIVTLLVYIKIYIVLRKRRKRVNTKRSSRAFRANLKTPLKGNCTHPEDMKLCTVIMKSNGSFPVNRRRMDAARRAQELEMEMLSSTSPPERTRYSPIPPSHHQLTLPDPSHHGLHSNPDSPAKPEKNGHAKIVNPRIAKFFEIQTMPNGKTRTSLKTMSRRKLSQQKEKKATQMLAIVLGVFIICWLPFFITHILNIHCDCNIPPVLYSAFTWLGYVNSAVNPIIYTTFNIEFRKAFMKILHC

With `CC1(C)CC(=O)c2ccc(OCCCN3CCN(c4ccccc4)CC3)cc2O1` [Example 1, 2,3-Dihydro-2,2-dimethyl-7-(3-(4-phenyl)-1-piperizinyl)propoxy-4H-benzopyran-4-one], the IC50 in test [1] (setting [3]) amounted to 300 nM. Further, in test [2], the median effective dose (ED50) is 5.9 mg/kg. For the compound `CC1(C)CC(=O)c2ccc(OCCCN3CC=C(c4ccccc4)CC3)cc2O1` [Example 2A, 7-[3-[3,6-dihydro-4-phenyl-1(2H)-pyridinyl)propoxy]-2,3-dihydro-2,2-dimethyl-4H-benzopyran-4-one], the IC50 in test [1] (setting [4]) was under 100 nM. Moreover, the ED50 in test [2] amounted to 4.8 mg/kg. Turning to `O=C1COc2cc(OCCCN3CCN(c4ccccc4)CC3)ccc21` [Example 2B, 6-[3-(4-phenyl-1-piperazinyl)propoxy]-3-(2H)-benzofuranone], in test [1] (setting [3]), the IC50 was determined as 100 nM. Besides, in test [2], the ED50 came out at 3.7 mg/kg. The compound `O=C1COc2cc(OCCCN3CC=C(c4ccccc4)CC3)ccc21` [Example 2C] returned an IC50 in test [1] (setting [4]) of under 100 nM. Besides, the 50% effective dose (ED50) in test [2] was determined as 3.5 mg/kg. Regarding `c1ccc(N2CCN(CCCOc3ccc4c(c3)OCCC4)CC2)cc1` [Example 2D, 1-[3-[(3,4-dihydro-2H-1-benzopyran-7-yl)oxy]propyl]-4-phenylpiperazine], in test [1] (setting [3]), the IC50 worked out at 70 nM. Further, in test [2], the ED50 was 2.7 mg/kg.

With `O=C1COc2ccc(OCCCN3CCN(c4ncccn4)CC3)cc2N1` [Example 2E, 6-[3-[4-(2-pyrimidinyl)-1-piperazinyl]propoxy]-2H-1,4-benzoxazine-3(4H)-one], the IC50 in test [1] (setting [3]) amounted to 1000 nM. Further, the ED50 in test [2] amounted to 1 mg/kg. As to `C1=C(c2ccccc2)CCN(CCCOc2cccc3[nH]ccc23)C1` [Example 2F, 4-[3-(3,6-dihydro-4-phenyl-1(2H)-pyridinyl)propoxy]-1H-indole], the half-inhibitory concentration (IC50) in test [1] (setting [4]) turned out to be 40 nM. The 50% effective dose (ED50) in test [2] was 2.5 mg/kg. In turn, `C1=C(c2ccccc2)CCN(CCCCOc2cccc3[nH]ccc23)C1` [Example 2G, 4-[4-(3,6-dihydro-4-phenyl-1(2H)-pyridinyl)butoxy]-1H-indole] displayed an IC50 in test [1] (setting [4]) of 50 nM. Besides, the ED50 in test [2] was 1.4 mg/kg.

In turn, `C1=C(c2ccccc2)CCN(CCCCOc2ccc3[nH]ccc3c2)C1` [Example 2H, 5-[4-(3,6-dihydro-4-phenyl-1(2H)-pyridinyl)butoxy]-1H-indole] returned an IC50 in test [1] (setting [4]) of 10 nM. Besides, the ED50 in test [2] is 0.5 mg/kg. `C1=C(c2ccccc2)CCN(CCCOc2ccc3cc[nH]c3c2)C1` [Example 2I, 6-[3-(3,6-dihydro-4-phenyl-1(2H)-pyridinyl)propoxy]-1H-indole] returned an IC50 in test [1] (setting [4]) of 100 nM. The ED50 in test [2] came to 2.8 mg/kg.

In the case of `c1cnc(N2CCN(CCCOc3ccc4cc[nH]c4c3)CC2)nc1` [Example 2J, 6-[3-[4-(2-pyrimidinyl)-1-piperazinyl]propoxy]-1H-indole], in test [1] (setting [3]), the IC50 was 200 nM. For the same compound, the ED50 in test [2] is 3.2 mg/kg. Take `c1ccc(N2CCN(CCCOc3ccc4ncccc4c3)CC2)cc1` [Example 2K, 6-[3-(4-phenyl-1-piperazinyl)propoxy]-quinoline]: in test [1] (setting [3]), the IC50 came out at 90 nM. The ED50 in test [2] was 0.5 mg/kg.

For the compound `c1cnc(N2CCN(CCCCOc3ccc4ncccc4c3)CC2)nc1` [Example 2L, 6-[4-[4-(2-pyrimidinyl)-1-piperazinyl]butoxy]quinoline], the IC50 in test [1] (setting [3]) stood at 50 nM. Further, the ED50 in test [2] was 0.9 mg/kg.

`C1=C(c2ccccc2)CCN(CCCCOc2ccc3ncccc3c2)C1` [Example 2M, 6-[4-(3,6-dihydro-4-phenyl-1(2H)-pyridinyl)butoxy]quinoline]: in test [1] (setting [4]), the concentration for half-maximal inhibition (IC50) amounted to 17 nM. Moreover, in test [2], the ED50 worked out at 1.1 mg/kg. Consider `c1cnc(N2CCN(CCCCOc3cccc4ncccc34)CC2)nc1` [Example 2N, 5-[4-[4-(2-pyrimidinyl)-1-piperazinyl]butoxy]quinoline], for which the half-inhibitory concentration (IC50) in test [1] (setting [3]) came out at 180 nM. The compound `C1=C(c2ccccc2)CCN(CCCOc2cccc3cnccc23)C1` [Example 2O, 5-[3-(3,6-dihydro-4-phenyl-1(2H)-pyridinyl)propoxy]isoquinoline] registered a 50% inhibitory concentration (IC50) in test [1] (setting [4]) of 33 nM. Also, in test [2], the 50% effective dose (ED50) stood at 0.18 mg/kg. Turning to `c1ccc(N2CCN(CCCOc3cccc4cnccc34)CC2)nc1` [Example 2P, 5-[3-[4-(2-pyridinyl)-1-piperazinyl]propoxy]isoquinoline], the half-maximal inhibitory concentration (IC50) in test [1] (setting [3]) turned out to be 645 nM. In addition, the median effective dose (ED50) in test [2] was 3 mg/kg. For the compound `c1ccc(N2CCN(CCCOc3cccc4cnccc34)CC2)cc1` [Example 2Q, 5-[3-(4-phenyl-1-piperazinyl)propoxy]isoquinoline], in test [1] (setting [3]), the IC50 is 206 nM. Also, the ED50 in test [2] was 0.29 mg/kg. For the compound `c1cnc(N2CCN(CCCOc3cccc4cnccc34)CC2)nc1` [Example 2R, 5-[3-[4-(2-pyrimidinyl)-1-piperazinyl]propoxy]isoquinoline], in test [1] (setting [3]), the IC50 turned out to be 947 nM. Moreover, the ED50 in test [2] was 19.5 mg/kg.

For `c1cnc(N2CCN(CCCCOc3cccc4ncccc34)CC2)nc1` [Example 2S, 5-[4-[4-(2-pyrimidinyl)-1-piperazinyl]butoxy]quinoline], the IC50 in test [1] (setting [3]) was determined as 184 nM. Further, the median effective dose (ED50) in test [2] turned out to be 7.7 mg/kg. As to `c1ccc(N2CCN(CCCOc3ccc4cccnc4c3)CC2)nc1` [Example 2T, 7-[3-[4-(2-pyridinyl)-1-piperazinyl]propoxy]quinoline], the concentration for half-maximal inhibition (IC50) in test [1] (setting [3]) stood at 230 nM. The ED50 in test [2] is 0.17 mg/kg.

In the case of `c1ccc(N2CCN(CCCOc3ccc4cccnc4c3)CC2)cc1` [Example 2U, 7-[3-(4-phenyl-1-piperazinyl)propoxy]quinoline], the IC50 in test [1] (setting [3]) was found to be 50 nM. For the same compound, the 50% effective dose (ED50) in test [2] turned out to be 0.1 mg/kg. As for `c1cnc(N2CCN(CCCOc3ccc4cccnc4c3)CC2)nc1` [Example 2V, 7-[3-[4-(2-pyrimidinyl)-1-piperazinyl]propoxy]quinoline], the IC50 in test [1] (setting [3]) came out at 900 nM. The median effective dose (ED50) in test [2] is 1 mg/kg. Take `Oc1nccc2c(OCCCN3CCN(c4ccccn4)CC3)cccc12` [Example 2W, 5-[3-[4-(2-pyridinyl)-1-piperazinyl]propoxy]-1-isoquinolinol]: the IC50 in test [1] (setting [3]) turned out to be 651 nM. Also, in test [2], the ED50 was 6.1 mg/kg.

With `O=C1NCCc2c(OCCCN3CCN(c4ccccn4)CC3)cccc21` [Example 2X], the IC50 in test [1] (setting [3]) was determined as 431 nM. Moreover, the median effective dose (ED50) in test [2] turned out to be 4.4 mg/kg. `c1ccc(N2CCN(CCCOc3ccc4[nH]cnc4c3)CC2)cc1` [Example 3, 5-[3-(4-Phenylpiperazinyl)propyloxy]-1H-benzimidazole] came in with a half-maximal inhibitory concentration (IC50) in test [1] (setting [4]) of 120 nM. For the same compound, the 50% effective dose (ED50) in test [2] was found to be 4.9 mg/kg. With `O=C1Cc2cc(OCCCN3CCN(c4ccccc4)CC3)ccc2N1` [Example 4, 1,3-dihydro-5-[3-(4-phenyl-1-piperazinyl)propoxy]-2H-indole-2-one], in test [1] (setting [3]), the 50% inhibitory concentration (IC50) was found to be 160 nM. Moreover, the 50% effective dose (ED50) in test [2] was 0.4 mg/kg.

Turning to `c1ccc(N2CCN(CCCOc3ccc4ccoc4c3)CC2)cc1` [Example 5, 1-[3-[6-Benzofuranyloxy]propyl]-4-phenylpiperazine], the IC50 in test [1] (setting [3]) came out at 500 nM. In addition, in test [2], the median effective dose (ED50) was determined as 8.8 mg/kg.

As a reminder, the IC50 is the midpoint of a concentration-inhibition curve. The ED50 is the dose at which the effect has come halfway, by size or by number of responders.
